Measured values published in ChEMBL document CHEMBL2440076, “New triarylpyrazoles as broad-spectrum anticancer agents: design, synthesis, and biological evaluation” (Eur J Med Chem, 2013).

What was measured:
Format in all cases: functional
SK-MEL-28 = assay: Growth inhibition of human SK-MEL-28 cells assessed as cell growth at 10^-6 M after 48 hrs by sulforhodamine B assay; settings: SK-MEL-28, 48 h, read-out: Activity
BT-549 [1] = assay: Growth inhibition of human BT549 cells assessed as cell growth at 10^-8 M after 48 hrs by sulforhodamine B assay; settings: BT-549, 48 h, read-out: Activity
UACC-257 [2] = assay: Growth inhibition of human UACC257 cells assessed as cell growth at 10^-7 M after 48 hrs by sulforhodamine B assay; settings: UACC-257, 48 h, read-out: Activity
[3] = Growth inhibition of human NCI-ADR-RES cells assessed as cell growth at 10^-8 M after 48 hrs by sulforhodamine B assay; settings: read-out: Activity
UACC-257 [4] = assay: Growth inhibition of human UACC257 cells assessed as cell growth at 10^-5 M after 48 hrs by sulforhodamine B assay; settings: UACC-257, 48 h, read-out: Activity
T47D = assay: Growth inhibition of human T47D cells assessed as cell growth at 10^-4 M after 48 hrs by sulforhodamine B assay; settings: read-out: Activity
HOP-92 = assay: Growth inhibition of human HOP92 cells assessed as cell growth at 10^-8 M after 48 hrs by sulforhodamine B assay; settings: HOP-92, 48 h, read-out: Activity
IGROV-1 = assay: Growth inhibition of human IGROV1 cells assessed as cell growth at 10^-8 M after 48 hrs by sulforhodamine B assay; settings: IGROV-1, 48 h, read-out: Activity
HCT-116 [5] = assay: Growth inhibition of human HCT116 cells assessed as cell growth at 10^-6 M after 48 hrs by sulforhodamine B assay; settings: HCT-116, 48 h, read-out: Activity
SN12C [6] = assay: Growth inhibition of human SN12C cells assessed as cell growth at 10^-5 M after 48 hrs by sulforhodamine B assay; settings: read-out: Activity
UACC-62 [7] = assay: Growth inhibition of human UACC62 cells assessed as cell growth at 10^-8 M after 48 hrs by sulforhodamine B assay; settings: UACC-62, 48 h, read-out: Activity
TK-10 = assay: Growth inhibition of human TK10 cells assessed as cell growth at 10^-5 M after 48 hrs by sulforhodamine B assay; settings: TK-10, 48 h, read-out: Activity
CCRF-CEM = assay: Growth inhibition of human CCRF-CEM cells assessed as cell growth at 10^-5 M after 48 hrs by sulforhodamine B assay; settings: read-out: Activity
NCI-H23 = assay: Growth inhibition of human NCI-H23 cells assessed as cell growth at 10^-7 M after 48 hrs by sulforhodamine B assay; settings: NCI-H23, 48 h, read-out: Activity
U-251 = assay: Growth inhibition of human U251 cells assessed as cell growth at 10^-5 M after 48 hrs by sulforhodamine B assay; settings: U-251, 48 h, read-out: Activity
SK-MEL-5 = assay: Growth inhibition of human SK-MEL-5 cells assessed as cell growth at 10^-4 M after 48 hrs by sulforhodamine B assay; settings: SK-MEL-5, 48 h, read-out: Activity
786-0 = assay: Growth inhibition of human 786-0 cells assessed as cell growth at 10^-7 M after 48 hrs by sulforhodamine B assay; settings: 786-0, 48 h, read-out: Activity
A498 [8] = assay: Growth inhibition of human A498 cells assessed as cell growth at 10^-4 M after 48 hrs by sulforhodamine B assay; settings: A498, 48 h, read-out: Activity
MDA-MB-468 = assay: Growth inhibition of human MDA-MB-468 cells assessed as cell growth at 10^-7 M after 48 hrs by sulforhodamine B assay; settings: MDA-MB-468, 48 h, read-out: Activity
OVCAR-5 [9] = assay: Growth inhibition of human OVCAR5 cells assessed as cell growth at 10^-7 M after 48 hrs by sulforhodamine B assay; settings: OVCAR-5, 48 h, read-out: Activity
RXF 393 = assay: Growth inhibition of human RXF393 cells assessed as cell growth at 10^-4 M after 48 hrs by sulforhodamine B assay; settings: RXF 393, 48 h, read-out: Activity
UACC-257 [10] = assay: Growth inhibition of human UACC257 cells assessed as cell growth at 10^-6 M after 48 hrs by sulforhodamine B assay; settings: UACC-257, 48 h, read-out: Activity
NCI-H226 = assay: Growth inhibition of human NCI-H226 cells assessed as cell growth at 10^-4 M after 48 hrs by sulforhodamine B assay; settings: NCI-H226, 48 h, read-out: Activity
SK-MEL-2 = assay: Growth inhibition of human SK-MEL-2 cells assessed as cell growth at 10^-5 M after 48 hrs by sulforhodamine B assay; settings: SK-MEL-2, 48 h, read-out: Activity
SN12C [11] = assay: Growth inhibition of human SN12C cells assessed as cell growth at 10^-6 M after 48 hrs by sulforhodamine B assay; settings: read-out: Activity
A498 [12] = assay: Growth inhibition of human A498 cells assessed as cell growth at 10^-6 M after 48 hrs by sulforhodamine B assay; settings: A498, 48 h, read-out: Activity
CAKI-1 = assay: Growth inhibition of human CAKI-1 cells assessed as cell growth at 10^-5 M after 48 hrs by sulforhodamine B assay; settings: CAKI-1, 48 h, read-out: Activity
OVCAR-5 [13] = assay: Growth inhibition of human OVCAR5 cells assessed as cell growth at 10^-8 M after 48 hrs by sulforhodamine B assay; settings: OVCAR-5, 48 h, read-out: Activity
MOLT-4 = assay: Growth inhibition of human MOLT4 cells assessed as cell growth at 10^-4 M after 48 hrs by sulforhodamine B assay; settings: MOLT-4, 48 h, read-out: Activity
K562 = assay: Growth inhibition of human K562 cells assessed as cell growth at 10^-7 M after 48 hrs by sulforhodamine B assay; settings: K562, 48 h, read-out: Activity
UACC-62 [14] = assay: Growth inhibition of human UACC62 cells assessed as cell growth at 10^-6 M after 48 hrs by sulforhodamine B assay; settings: UACC-62, 48 h, read-out: Activity
OVCAR-4 = assay: Growth inhibition of human OVCAR4 cells assessed as cell growth at 10^-5 M after 48 hrs by sulforhodamine B assay; settings: OVCAR-4, 48 h, read-out: Activity
HCT-116 [15] = assay: Growth inhibition of human HCT116 cells assessed as cell growth at 10^-7 M after 48 hrs by sulforhodamine B assay; settings: HCT-116, 48 h, read-out: Activity
NCI-H322M = assay: Growth inhibition of human NCI-H322M cells assessed as cell growth at 10^-4 M after 48 hrs by sulforhodamine B assay; settings: read-out: Activity
BT-549 [16] = assay: Growth inhibition of human BT549 cells assessed as cell growth at 10^-4 M after 48 hrs by sulforhodamine B assay; settings: BT-549, 48 h, read-out: Activity
COLO 205 [17] = assay: Growth inhibition of human COLO205 cells assessed as cell growth at 10^-8 M after 48 hrs by sulforhodamine B assay; settings: COLO 205, 48 h, read-out: Activity
COLO 205 [18] = assay: Growth inhibition of human COLO205 cells assessed as cell growth at 10^-7 M after 48 hrs by sulforhodamine B assay; settings: COLO 205, 48 h, read-out: Activity
KM12 = assay: Growth inhibition of human KM12 cells assessed as cell growth at 10^-4 M after 48 hrs by sulforhodamine B assay; settings: KM12, 48 h, read-out: Activity

COc1cc(-c2nn(-c3cccc(NC(=O)c4ccc(N5CCOCC5)c(C(F)(F)F)c4)c3)cc2-c2ccncc2)ccc1Cl
growth at 1 µM (SK-MEL-28): 56%
growth at 0.01 µM (BT-549 [1]): 99%
growth at 0.1 µM (UACC-257 [2]): 74%
growth at 0.01 µM [3]: 102%
growth at 10 µM (UACC-257 [4]): -5%
growth at 100 µM (T47D): 13%
growth at 0.01 µM (HOP-92): 70%
growth at 0.01 µM (IGROV-1): 111%
growth at 1 µM (HCT-116 [5]): 33%
growth at 10 µM (SN12C [6]): 14%
growth at 0.01 µM (UACC-62 [7]): 95%
growth at 10 µM (TK-10): 14%
growth at 10 µM (CCRF-CEM): 5%
growth at 0.1 µM (NCI-H23): 92%
growth at 10 µM (U-251): -17%
growth at 100 µM (SK-MEL-5): -85%
growth at 0.1 µM (786-0): 100%
growth at 100 µM (A498 [8]): -24%
growth at 0.1 µM (MDA-MB-468): 71%
growth at 0.1 µM (OVCAR-5 [9]): 93%
growth at 100 µM (RXF 393): -27%
growth at 1 µM (UACC-257 [10]): 49%
growth at 100 µM (NCI-H226): 16%
growth at 10 µM (SK-MEL-2): -2%
growth at 1 µM (SN12C [11]): 51%
growth at 1 µM (A498 [12]): 1%
growth at 10 µM (CAKI-1): -2%
growth at 0.01 µM (OVCAR-5 [13]): 95%
growth at 100 µM (MOLT-4): 2%
growth at 0.1 µM (K562): 29%
growth at 1 µM (UACC-62 [14]): 42%
growth at 10 µM (OVCAR-4): 32%
growth at 0.1 µM (HCT-116 [15]): 75%
growth at 100 µM (NCI-H322M): -1%
growth at 100 µM (BT-549 [16]): 9%
growth at 0.01 µM (COLO 205 [17]): 106%
growth at 0.1 µM (COLO 205 [18]): 101%
growth at 100 µM (KM12): -12%

COc1cc(-c2nn(-c3cccc(NC(=O)c4ccccc4)c3)cc2-c2ccncc2)ccc1Cl
growth at 1 µM (SK-MEL-28): 60%
growth at 0.01 µM (BT-549 [1]): 92%
growth at 0.1 µM (UACC-257 [2]): 99%
growth at 0.01 µM [3]: 98%
growth at 10 µM (UACC-257 [4]): 29%
growth at 100 µM (T47D): 30%
growth at 0.01 µM (HOP-92): 93%
growth at 0.01 µM (IGROV-1): 105%
growth at 1 µM (HCT-116 [5]): 31%
growth at 10 µM (SN12C [6]): 34%
growth at 0.01 µM (UACC-62 [7]): 98%
growth at 10 µM (TK-10): 45%
growth at 10 µM (CCRF-CEM): 6%
growth at 0.1 µM (NCI-H23): 91%
growth at 10 µM (U-251): 17%
growth at 100 µM (SK-MEL-5): -85%
growth at 0.1 µM (786-0): 92%
growth at 100 µM (A498 [8]): -7%
growth at 0.1 µM (MDA-MB-468): 89%
growth at 0.1 µM (OVCAR-5 [9]): 93%
growth at 100 µM (RXF 393): -8%
growth at 1 µM (UACC-257 [10]): 47%
growth at 100 µM (NCI-H226): 24%
growth at 10 µM (SK-MEL-2): -10%
growth at 1 µM (SN12C [11]): 64%
growth at 1 µM (A498 [12]): 19%
growth at 10 µM (CAKI-1): 14%
growth at 0.01 µM (OVCAR-5 [13]): 95%
growth at 100 µM (MOLT-4): 33%
growth at 0.1 µM (K562): 99%
growth at 1 µM (UACC-62 [14]): 41%
growth at 10 µM (OVCAR-4): 33%
growth at 0.1 µM (HCT-116 [15]): 95%
growth at 100 µM (NCI-H322M): 34%
growth at 100 µM (BT-549 [16]): 28%
growth at 0.01 µM (COLO 205 [17]): 100%
growth at 0.1 µM (COLO 205 [18]): 95%
growth at 100 µM (KM12): 6%
